In patent publication US11911376B2, “Methods for preventing and treating retinal damage” (THE REGENTS OF THE UNIVERSITY OF COLORADO, priority 2020, dated 2024):

How the values were obtained:
[1] = system: retinal ganglion cells (RGCs); assay: Ischemia/reperfusion (I/R) injury model in mice, Brn3a-positive RGC loss in flat-mounted retinas; format: in vivo, WT (C57BL/6J) mice
Method: To evaluate the effects of kynurenic acid on retinal conditions characterized by RGC death, e.g., glaucoma, wild-type (WT) mice were subjected to ischemia/reperfusion (I/R) injury, which induced RGC death. I/R injury was performed by first anesthetizing 12-week-old WT (C57BL/6J) mice with an intraperitoneal injection of ketamine/xylazine confirmed by the toe-pinch test. The mice were then placed on a heating pad throughout the procedure to maintain their body temperature. The right eye of each animal was cannulated into the anterior chamber with a 33-gauge needle connected to an elevated saline reservoir. The height of the reservoir was adjusted to achieve an intraocular pressure of 120 mmHg. After 60 min of this procedure, the needle was removed.
(§1) Treatment mice were given kynurenic acid intravenously or intravitreally, while control mice were subjected to the same I/R injury but not given kynurenic acid. Intravenous and intravitreal administration of kynurenic acid was performed immediately after I/R injury and again 24 hours post-injury. Kynurenic acid was injected intravenously via the tail vein into WT mice at a concentration of 2.5 mg/animal (25 mg/mL stock dissolved in 0.1 N NaOH, diluted in 0.1 M sodium phosphate buffer, and adjusted to pH 7). After 2 hours, kynurenic acid levels in the serum and retina were measured. Control animals received 0.1 M sodium phosphate buffer (pH 7) alone.
Kynurenic acid was injected intravitreally into separate WT mice at a concentration of either 5 or 10 μg/animal (5 mg/mL stock of kynurenic acid was dissolved in 0.1 N NaOH and diluted in 0.1 M sodium phosphate buffer adjusted to pH 7). Control animals were intravitreally injected with buffer alone. Intravitreal injection was performed using a 33-gauge needle attached to a Hamilton syringe (Hamilton Bonaduz AG, Bonaduz, Switzerland). The eye lids were carefully parted, and the 33-gauge needle was inserted at a 45° angle into the vitreous, just behind the limbus. One or two microliters of solution was injected in 1 μL increments with a 30 second gap between each injection. After injection, the needle was slowly withdrawn, and the injected area was treated with a topical antibiotic. Mice were anesthetized with a cocktail containing ketamine and xylazine prior to the intravitreal injections.
All mice were euthanized and retinas dissected 14 days after I/R injury, flat-mounted and immunostained for Brn3a (brain-specific homeobox/POU domain protein 3A), which is a marker for RGCs.

[2] = Kynurenic acid levels in serum and retina by LC-MS/MS after intravenous injection (blood retinal barrier permeability); format: in vivo, WT mice; conditions: intravenous 2.5 mg/animal, two hours after injection, relative to sodium phosphate buffer-injected control mice, *p<0.05
Method: as §1
To first determine whether kynurenic acid is permeable across the blood retinal barrier, kynurenic acid levels in the serum and retina of six WT mice intravenously injected with kynurenic acid (KYNA) were measured by LC=MS/MS two hours after injection.

O=C(O)c1cc(=O)c2ccccc2[nH]1 [kynurenic acid]
level of RGC loss, central retina ([1]; intravenous 2.5 mg/animal immediately after I/R injury and again 24 hours post-injury, Brn3a-positive RGCs per mm2, 14 days after I/R, I/R control 36.3%): 11.2%
level of RGC loss, peripheral retina ([1]; intravenous 2.5 mg/animal immediately after I/R injury and again 24 hours post-injury, Brn3a-positive RGCs per mm2, 14 days after I/R, I/R control 50%): 29.4%
level of RGC loss, central retina ([1]; intravitreal 5 μg immediately after I/R and 24 hours post-injury, 14 days after I/R, I/R control 66.1%): 32.4%
level of RGC loss, peripheral retina ([1]; intravitreal 5 μg immediately after I/R and 24 hours post-injury, 14 days after I/R, I/R control 70.9%): 46.1%
level of RGC loss, central retina ([1]; intravitreal 10 μg immediately after I/R and 24 hours post-injury, 14 days after I/R, I/R control 66.1%): 18.5%
level of RGC loss, peripheral retina ([1]; intravitreal 10 μg immediately after I/R and 24 hours post-injury, 14 days after I/R, I/R control 70.9%): 26.8%
kynurenic acid levels in retina [2]: increased significantly
kynurenic acid levels in serum [2]: increased significantly
